≈ marks a conversion by molar mass, not a printed value. Entries after “also recorded” stand apart in the source; their conditions may differ.

Assay [1] has as its system Aβ-induced PC12 cell model. The experiment in a line: Prophylactic effect on Aβ-induced PC12 AD cell model (sample pretreatment, then aggregated Aβ; CCK-8 cell viability). The format is cell-based, rat. The note with it: sample 24 h, then aggregated Aβ 24 h; for prophylactic effect on AD cell model (preventing Aβ-induced neuronal damage, cell viability): FIGS. 3A-3E, concentration not given. The method, then:
(§1) β-Amyloid 1-40 (Aβ) was dissolved in 0.1% (v/v) trifluoroacetic acid (TFA) in water at 10 mg/ml and stored at −20° C. as a stock solution. Af3 was diluted to 0.5 mg/ml with phosphate-buffered saline solution (PBS, without Ca2+) and aggregate at 25° C. for 48 hr before use. To investigate the therapeutic effect of extracts (ANCA, ANCA-D) and compounds (Antrocamol LT1, LT2, LT3) on Alzheimer disease (AD) cell model in vitro, cultures were pretreated with Aβ for 24 h and then exposed to freshly prepared extracts (ANCA, ANCA-D) and compounds (Antrocamol LT1, LT2, LT3) for 24 hr before cell viability measurements. In contrast, to investigate the prophylactic effect of extracts (ANCA, ANCA-D) and compounds (Antrocamol LT1, LT2, LT3) on AD cell model, cultures were pretreated with extracts (ANCA, ANCA-D) and compounds (Antrocamol LT1, LT2, LT3) for 24 h and then exposure to aggregated Aβ for 24 h before cell viability measurements. The cell viability was estimated by below formulation:
(§2) Cell viability (%)=(Sample-Blank)/(Control-Blank)×100%

Another assay has as its system NGF-induced PC12 cells. As to the kind of experiment: Viability of NGF-induced PC12 cells treated with extracts and compounds (CCK-8 assay). In kind it is cell-based. Conditions: Rattus norvegicus, PC-12, 24 hr incubation, CCK-8, FIGS. 1A-1E, read-out: IC50 (cell viability). How it is done:
PC12 cells were cultured in RPMI 1640 medium (5% fetal bovine serum, 10% heat-inactivated horse serum, 2 mM glutamine, 50 U/mL penicillin, […] streptomycin), at 37° C., 5% CO2, subculture twice a week.
PC12 cells need to be cultured in medium containing Nerve growth factor (NGF) 2.5S, (100 ng/mL) in advance for NGF-induced neuronal differentiation.
Cell Counting Kit-8(CCK-8) allows sensitive colorimetric assays for the determination of cell viability in cell proliferation and cytotoxicity assays. Dojindo's highly water-soluble tetrazolium salt, WST-8, is reduced by dehydrogenase activities in cells to give a yellow-color formazan dye, which is soluble in the tissue culture media. The amount of the formazan dye, generated by the activities of dehydrogenases in cells, is directly proportional to the number of living cells. The detection sensitivity of CCK-8 is higher than the other tetrazolium salts such as MTT, XTT, MTS or WST-1.
To optimize the exemplary extracts (ANCA, ANCA-D) and compounds (Antrocamol LT1, LT2, LT3) concentration for NGF-induced PC12 neural model, titration experiments were performed to determine the IC50 values of extracts and compounds. 5 x 10^4 NGF-induced PC12 cells were cultured in 96-well dish for 24 hr. Then the cells were cultured in medium with 1% fetal bovine serum, 2% heat-inactivated horse serum, 2 mM glutamine, 50 U/mL penicillin, […] streptomycin RPMI 1640 medium, then various concentrations of extracts [ANCA, ANCA-D (0.064, 0.32, 1.6, 8, 40, 200 μg/mL)] and compounds [Antrocamol LT1, LT2, LT3 (0.032, 0.16, 0.8, 4, 20, 100 μg/mL) were added individually and incubated for 24 hr. After treatment, the CCK-8 solution was added to each well of plates and incubates the plates for 4 hr in the incubator. The concentration of the formazan product was determined spectrophotometrically at an absorbance wavelength 450 nm and cell viability was expressed as a percentage of the corresponding control.

In assay [2] the test system is Aβ-induced PC12 cell model. The experiment in a line: Therapeutic effect on Aβ-induced PC12 AD cell model (Aβ pretreatment, then sample; CCK-8 cell viability). In kind it is cell-based, rat. Conditions: Aβ 24 h, then sample 24 hr; for therapeutic effect on AD cell model (inhibition of Aβ-induced damage, cell viability): FIGS. 2A-2E, concentration not given. The method, then:
as §1, §2

As for `COC1=C(OC)[C@H](O)[C@H](C/C=C(\C)CC/C=C(\C)CC(O)C=C(C)C)[C@@H](C)C1=O` (stereo partly shown) [LT1, 4-hydroxy-5-[9-hydroxy-3,7,11-trimethyldodeca-2,6,10-trienyl]-2,3-dimethoxy-6-methyl-cyclohex-2-enone], in assay [1] (100 μg/mL, 50 μg/mL, 25 μg/mL), the “prophylactic effect compared with extracts” value is recorded as “better prophylactic effect than extracts”. Moreover, in assay [1], the “prophylactic effect on AD cell model (preventing Aβ-induced neuronal damage, cell viability)” value (“prophylactic effect on AD cell model” for short) is on record as “significant impact in preventing”. The 50% inhibitory concentration (IC50) with NGF-induced PC12 cells was found to be 178 µg/mL (≈ 439 µM). Moreover, the “inhibitory effect on Aβ-induced damage (therapeutic)” value (“inhibitory effect” for short) in assay [2] (25 μg/mL) was “weak”; in assay [2] (50 μg/mL), “significant inhibitory effect”; in assay [2] (100 μg/mL) it was “significant inhibitory effect”. Also, in assay [2], the “therapeutic effect on AD cell model (inhibition of Aβ-induced damage, cell viability)” value was “significantly inhibited Aβ-induced damage and improved the cell viability”.

As to `COC1=C(OC)[C@H](OC(C)=O)[C@H](C/C=C(\C)CC/C=C(\C)CC(O)C=C(C)C)[C@@H](C)C1=O` (stereo partly shown) [LT2, 4-acetoxy-5-[9-hydroxy-3,7,11-trimethyldodeca-2,6,10-trienyl]-2,3-dimethoxy-6-methyl-cyclohex-2-enone], the “prophylactic effect on AD cell model” value in assay [1] is “significant impact in preventing; also recorded: weak preventing effect”. Besides, the 50% inhibitory concentration (IC50) in the assay with NGF-induced PC12 cells came to 168 µg/mL (≈ 376 µM). Moreover, the “inhibitory effect” value in assay [2] (25 μg/mL) is given as “weak”; in assay [2] (50 μg/mL) it was “significant inhibitory effect”; in assay [2] (100 μg/mL), “significant inhibitory effect”. Also, the “therapeutic effect on AD cell model (inhibition of Aβ-induced damage, cell viability)” value in assay [2] was “significantly inhibited Aβ-induced damage and improved the cell viability”.

As to `COC1=C(OC)[C@H](O)[C@H](C/C=C(\C)CC/C=C(\C)C/C=C/C(C)(C)O)[C@@H](C)C1=O` [LT3, (4R,5R,6R)-4-hydroxy-5-[(2E,6E,9E)-11-hydroxy-3,7,11-trimethyldodeca-2,6,9-trienyl]-2,3-dimethoxy-6-methylcyclohex-2-enone], the “prophylactic effect on AD cell model” value in assay [1] is “significant impact in preventing; also recorded: weak preventing effect”. Moreover, in the assay on NGF-induced PC12 cells, the IC50 turned out to be 106 µg/mL (≈ 259 µM). In addition, the results for the “inhibitory effect” value in assay [2] (25 μg/mL), in assay [2] (50 μg/mL) and in assay [2] (100 μg/mL) were “weak”, “significant inhibitory effect” and “significant inhibitory effect”, respectively. In addition, in assay [2], the “therapeutic effect on AD cell model (inhibition of Aβ-induced damage, cell viability)” value is “significantly inhibited Aβ-induced damage and improved the cell viability”.

Values taken from US20170273916A1, “METHODS FOR TREATING AND PREVENTING NEURODEGENERATIVE DISEASES” (priority 2016, published 2017).
